Reference: ChEMBL document CHEMBL6120955, “Computationally Driven Discovery of a BCR-ABL1 Kinase Inhibitor with Activity in Multidrug-Resistant Chronic Myeloid Leukemia” (J Med Chem, 2024)
The source made the active and inactive calls. The rule behind the calls is not given here.

Legend:
[1] = in vitro; conditions: dog, MDCK-MDR1
[2] = species on record: Homo sapiens; test: Binding affinity to human PDGFR at 1 uM by KINOMEscan analysis
[3] = Stability in mouse hepatocytes; type: ADME, cell-based, Hepatocyte
[4] = target: Mast/stem cell growth factor receptor Kit (Homo sapiens) (UniProt P10721); test: Binding affinity to human KIT at 1 uM by KINOMEscan analysis
Sequence of Mast/stem cell growth factor receptor Kit (Homo sapiens) (P10721 whole entry): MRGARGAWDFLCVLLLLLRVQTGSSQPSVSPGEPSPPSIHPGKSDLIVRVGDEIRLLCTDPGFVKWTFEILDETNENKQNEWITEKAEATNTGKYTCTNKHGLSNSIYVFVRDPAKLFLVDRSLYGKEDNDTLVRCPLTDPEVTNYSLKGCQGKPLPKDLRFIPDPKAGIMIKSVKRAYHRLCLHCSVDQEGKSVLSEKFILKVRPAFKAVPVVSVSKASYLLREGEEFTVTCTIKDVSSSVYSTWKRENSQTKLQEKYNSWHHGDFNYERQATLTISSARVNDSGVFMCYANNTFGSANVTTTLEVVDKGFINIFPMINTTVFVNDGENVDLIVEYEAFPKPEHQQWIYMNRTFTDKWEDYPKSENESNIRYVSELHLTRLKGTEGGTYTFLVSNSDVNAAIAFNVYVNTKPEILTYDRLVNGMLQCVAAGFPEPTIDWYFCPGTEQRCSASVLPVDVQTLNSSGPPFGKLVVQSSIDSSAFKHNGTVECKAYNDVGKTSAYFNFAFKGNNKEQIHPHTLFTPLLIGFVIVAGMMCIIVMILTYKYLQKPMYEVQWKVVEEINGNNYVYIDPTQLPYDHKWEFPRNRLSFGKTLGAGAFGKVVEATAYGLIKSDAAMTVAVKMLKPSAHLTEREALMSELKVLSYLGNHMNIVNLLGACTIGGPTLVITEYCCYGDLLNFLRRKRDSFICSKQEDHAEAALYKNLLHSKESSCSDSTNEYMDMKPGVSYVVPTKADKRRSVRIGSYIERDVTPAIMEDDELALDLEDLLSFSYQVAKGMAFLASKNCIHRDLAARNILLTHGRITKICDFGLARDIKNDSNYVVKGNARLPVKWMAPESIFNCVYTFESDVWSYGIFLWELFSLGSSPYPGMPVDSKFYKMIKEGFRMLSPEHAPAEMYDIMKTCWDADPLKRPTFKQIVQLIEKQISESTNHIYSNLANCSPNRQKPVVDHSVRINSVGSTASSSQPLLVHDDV

[5] = Stability in human hepatocytes; type: ADME, cell-based, Hepatocyte

## COc1cc2ncnc(Nc3cccc(Cl)c3F)c2cc1OCCON1CCN(C)CC1
[1]
  efflux ratio: 0.9

## COc1cc2c(Nc3ccc(Cl)c(OC)n3)c(C#N)cnc2cc1OCCON1CCN(C)CC1
[2]
  inhibition: inactive
[3]
  Stability: Stable
[4]
  inhibition: inactive
[5]
  Stability: Stable
